Patent US11253517B2, “Small molecule regulators of steroid receptor coactivators and methods of use thereof” (BAYLOR COLLEGE OF MEDICINE, priority 2016, dated 2022)

Columns and labels:
Type in all cases: cell-based
SRC-3 = target: T1, SRC-3 (Homo sapiens, UniProt Q9Y6Q9); assay: SRC-3 intrinsic transcriptional activity luciferase assay in HeLa cells; conditions: pG5-LUC reporter with pBIND-SRC-3, 24 hours
T1 construct: expressed in transfected cells; host or cells: HeLa
Protocol: Luciferase assays were performed in HeLa cells transiently transfected with the reporter vector pG5-LUC in combination with expression vectors for pBIND and pBIND-SRC-3 before incubation with the compound for 24 hours. In FIG. 1, the first histogram bar in each set represents pBIND; the second histogram bar in each set represents SRC-1; the third histogram bar in each set represents SRC-2; and the fourth histogram bar in each set represents SRC-3.
Intrinsic transcriptional activity assays were conducted as for FIG. 1. In FIG. 2, the left histogram bar in each set represents pBIND and the right histogram bar in each set represents pBIND-SRC3.
The effects of the SI compounds described herein on the intrinsic transcriptional activities of SRC-1, SRC-2 and SRC-3 were investigated. HeLa cells were transiently transfected with a pGL5-LUC reporter and expression vectors for pBIND and pBIND-SRC-1, pBIND-SRC-2, pBIND-SRC-3, followed by 24 hours of treatment with different concentrations of SI compounds. Compounds as described herein, including SI-9, SI-10, SI-11, SI-12, SI-14, SI-15, SI-16, SI-17, SI-19, SI-20, and SI-21, were tested for their ability to inhibit the intrinsic transcriptional activity of SRC-1, SRC-2 and SRC-3 in FIG. 1.

MDA-MB-468 cells [1] = assay: IC50 in MDA-MB-468 cells, 72 hours incubation; conditions: Homo sapiens
Protocol: (§1) The compounds described herein were synthesized as described in Example 1. The IC50 values were measured in MDA-MB-468, BT-474, and MCF-7 cells by incubating a series of concentrations of the corresponding compounds for 72 hours.
(§2) In Tables 1 and 2, “−” represents IC50 or EC50 values greater than 10 μM; “+” represents IC50 or EC50 values from greater than 1 μM to 10 μM; “++” represents IC50 or EC50 values from 0.1 μM to 1 μM; and “+++” represents IC50 or EC50 values less than 0.1 μM.

BT-474 cells = assay: IC50 in BT-474 cells, 72 hours incubation; conditions: Homo sapiens
Protocol: as §1, §2

MCF-7 cells = assay: IC50 in MCF-7 cells, 72 hours incubation; conditions: Homo sapiens, MCF7
Protocol: as §1, §2

MDA-MB-468 cells [2] = assay: EC50 in MDA-MB-468 cells, 72 hours incubation; conditions: Homo sapiens
Protocol: The EC50 values of certain compounds were measured in MDA-MB-468 cells by incubating a series of concentrations of the corresponding compounds for 72 hours.
as §2

T1 sequence (Q9Y6Q9 whole entry): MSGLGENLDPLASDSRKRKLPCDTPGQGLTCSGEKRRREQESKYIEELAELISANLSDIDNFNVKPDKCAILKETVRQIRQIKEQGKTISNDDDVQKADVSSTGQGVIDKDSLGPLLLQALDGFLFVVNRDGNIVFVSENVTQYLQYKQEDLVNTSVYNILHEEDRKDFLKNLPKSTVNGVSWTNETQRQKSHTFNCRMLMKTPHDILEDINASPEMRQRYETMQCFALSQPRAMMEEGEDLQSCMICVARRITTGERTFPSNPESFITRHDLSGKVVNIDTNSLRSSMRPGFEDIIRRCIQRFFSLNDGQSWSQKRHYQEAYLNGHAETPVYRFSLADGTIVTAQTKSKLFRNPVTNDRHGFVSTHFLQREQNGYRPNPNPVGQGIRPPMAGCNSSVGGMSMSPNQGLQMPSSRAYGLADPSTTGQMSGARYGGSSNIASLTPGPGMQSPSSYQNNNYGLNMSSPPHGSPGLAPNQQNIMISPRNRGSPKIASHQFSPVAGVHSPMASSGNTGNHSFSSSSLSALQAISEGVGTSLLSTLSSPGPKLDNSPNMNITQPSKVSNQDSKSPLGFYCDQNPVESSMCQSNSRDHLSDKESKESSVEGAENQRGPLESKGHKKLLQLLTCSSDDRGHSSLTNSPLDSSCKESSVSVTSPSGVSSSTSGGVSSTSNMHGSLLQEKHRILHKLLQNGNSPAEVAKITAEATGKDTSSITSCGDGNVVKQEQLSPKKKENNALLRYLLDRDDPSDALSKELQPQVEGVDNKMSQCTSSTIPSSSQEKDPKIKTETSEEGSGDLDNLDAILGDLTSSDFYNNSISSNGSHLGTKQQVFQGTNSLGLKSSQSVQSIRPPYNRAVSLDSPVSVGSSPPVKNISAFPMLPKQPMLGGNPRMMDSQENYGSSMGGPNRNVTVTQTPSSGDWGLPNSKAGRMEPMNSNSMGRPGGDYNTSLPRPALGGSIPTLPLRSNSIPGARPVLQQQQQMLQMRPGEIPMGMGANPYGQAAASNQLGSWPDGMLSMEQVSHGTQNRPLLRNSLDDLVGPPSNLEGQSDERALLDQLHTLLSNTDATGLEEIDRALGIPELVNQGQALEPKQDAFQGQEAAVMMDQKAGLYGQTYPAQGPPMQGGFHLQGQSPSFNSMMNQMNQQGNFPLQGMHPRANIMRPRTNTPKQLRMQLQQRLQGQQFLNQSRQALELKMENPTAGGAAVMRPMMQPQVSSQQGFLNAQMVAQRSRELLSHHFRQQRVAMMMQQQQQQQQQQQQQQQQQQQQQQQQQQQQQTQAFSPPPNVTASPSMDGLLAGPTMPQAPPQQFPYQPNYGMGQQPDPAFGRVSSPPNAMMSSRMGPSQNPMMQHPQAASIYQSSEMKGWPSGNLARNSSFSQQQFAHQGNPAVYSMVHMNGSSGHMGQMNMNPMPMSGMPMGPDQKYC

**Q.** With C/C(=N\Nc1nc2ccccc2n1C)c1ccc[nH]1 [SI-3] as the compound, how does the “effect on SRC-3 intrinsic activity” value (SRC-3) read?
**A.** The value was “able to stimulate SRC-3 intrinsic activity at certain doses”.

**Q.** With C/C(=N\Nc1nc2ccccc2n1C)c1nccn1C [SI-4] as the compound, how does the “effect on SRC-3 intrinsic activity” value (SRC-3) read?
**A.** The value was “able to stimulate SRC-3 intrinsic activity at certain doses”.

**Q.** How did the “effect on SRC-3 intrinsic activity” value (SRC-3) turn out when C/C(=N\Nc1nc2ccccc2n1C)c1ncco1 [SI-5] was run?
**A.** The value was “able to stimulate SRC-3 intrinsic activity at certain doses”.

**Q.** How did the IC50 (MDA-MB-468 cells [1]) turn out when C/C(=N\Nc1nc2ccccc2n1C)c1nccs1 [SI-6] was run?
**A.** Its IC50 is 100 to 1000 nM.

**Q.** And the “effect on SRC-3 intrinsic activity” value (SRC-3)?
**A.** The value was “able to stimulate SRC-3 intrinsic activity at certain doses”.

**Q.** How did the “effect on SRC-3 intrinsic activity” value (SRC-3) turn out when C/C(=N\Nc1nc2ccccc2n1C)c1ccco1 [SI-7] was run?
**A.** Its value is “able to stimulate SRC-3 intrinsic activity at certain doses”.

**Q.** C/C(=N\Nc1nc2ccccc2n1C)c1cccs1 [SI-8] was tested. Which “effect on SRC-3 intrinsic activity” value (SRC-3) did it give?
**A.** Its value is “able to stimulate SRC-3 intrinsic activity at certain doses”.

**Q.** C/C(=N\Nc1nc2cc(F)c(F)cc2n1C)c1ccccn1 [SI-9] was tested. Which IC50 (BT-474 cells) did it give?
**A.** The IC50 was < 100 nM.

**Q.** Which results are given for C/C(=N\Nc1nc2cc(F)c(F)cc2n1C)c1ncccn1 [SI-10]?
**A.** IC50 (MCF-7 cells): < 100 nM; IC50 (BT-474 cells): < 100 nM

**Q.** For C/C(=N\Nc1nc2cc(F)c(F)cc2n1C)c1ccncn1 [SI-11], which IC50 (MCF-7 cells) is on record?
**A.** The IC50 was < 100 nM.

**Q.** What about the IC50 (BT-474 cells) of the same compound?
**A.** Its IC50 is < 100 nM.

**Q.** For C/C(=N\Nc1nc2cc(F)ccc2n1C)c1ccccn1 [SI-14], which IC50 (MCF-7 cells) is on record?
**A.** The IC50 was < 100 nM.

**Q.** And the IC50 (BT-474 cells)?
**A.** Its IC50 is < 100 nM.

**Q.** For C/C(=N\Nc1nc2cc(F)ccc2n1C)c1ncccn1 [SI-15], which IC50 (MCF-7 cells) is on record?
**A.** The IC50 was < 100 nM.

**Q.** And the IC50 (BT-474 cells)?
**A.** The IC50 was < 100 nM.

**Q.** Which results are given for C/C(=N\Nc1nc2cc(F)ccc2n1C)c1ccncn1 [SI-16]?
**A.** IC50 (MCF-7 cells): < 100 nM; IC50 (BT-474 cells): < 100 nM

**Q.** With C/C(=N\Nc1nc2cc(F)ccc2n1C)c1ccc(F)cn1 [SI-17] as the compound, how does the IC50 (MCF-7 cells) read?
**A.** The IC50 was < 100 nM.

**Q.** And the IC50 (BT-474 cells)?
**A.** The IC50 was < 100 nM.

**Q.** What does the source list for C/C(=N\Nc1nc2ccccc2n1C)c1ncccn1 [SI-19]?
**A.** IC50 (MCF-7 cells): < 100 nM; IC50 (BT-474 cells): < 100 nM

**Q.** With C/C(=N\Nc1nc2ccccc2n1C)c1ccncn1 [SI-20] as the compound, how does the IC50 (MCF-7 cells) read?
**A.** The IC50 was < 100 nM.

**Q.** And the IC50 (BT-474 cells)?
**A.** Its IC50 is < 100 nM.

**Q.** For C/C(=N\Nc1nc2ccccc2n1C)c1ccc(F)cn1 [SI-21], which IC50 (MCF-7 cells) is on record?
**A.** Its IC50 is < 100 nM.

**Q.** And the IC50 (BT-474 cells)?
**A.** The IC50 was < 100 nM.

**Q.** How did the EC50 (MDA-MB-468 cells [2]) turn out when Cn1c(NNC(=O)c2ccccn2)nc2ccccc21 [SI-C-01] was run?
**A.** Its EC50 is 100 to 1000 nM.

**Q.** Which EC50 (MDA-MB-468 cells [2]) does the source give for C/C(=N\Nc1nc2ccccc2n1C)c1ncccc1Br [SI-E-01P] here?
**A.** Its EC50 is 100 to 1000 nM.
